The values that follow come from ChEMBL document CHEMBL1201862, “PubChem BioAssay data set” (2004).

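Assay format: 96-well plates, 48-hour exposure. GI50: concentration for 50% inhibition of growth.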 The source made the active and inactive calls. No stated cut-off is given here; in the data, active = GI50 up to about 1.1 µM and inactive = higher.

Test systems include 786-0; A549; EKVX; HCT-116; HT-29; LOX IMVI; MDA-MB-435; Malme-3M; NCI-H23; OVCAR-5; OVCAR-8; RXF 393; SF-295; SF-539; SK-MEL-28; SK-MEL-5; SN12C; TK-10; HCC 2998; NCI-H226.
Common to all, as to assay: growth of human tumour cells (NCI), 48 h

Regarding `CC(C)(C)c1ccc(O)c(CN(Cc2c(O)ccc3ccccc23)C2CCCCC2)c1`, the GI50 in the experiment with 786-0 was 15.5 µM (inactive); with A549, 18.5 µM (inactive); in the experiment with EKVX, 15.8 µM (inactive); in the experiment with HCT-116 it was 16.9 µM (inactive); in the experiment with HT-29 it was 16 µM (inactive); in the experiment with LOX IMVI, 10.4 µM (inactive). In addition, the GI50 with MDA-MB-435 was 19.2 µM (inactive); in the experiment on Malme-3M it was 17.4 µM (inactive); in the experiment with NCI-H23, 16.4 µM (inactive); with OVCAR-5, 16.9 µM (inactive); in the experiment on OVCAR-8, 15.2 µM (inactive); in the experiment with RXF 393, 17.5 µM (inactive). In addition, the GI50 is 18.3 µM (inactive) with SF-295; 16.4 µM (inactive) in the experiment on SF-539; 20.5 µM (inactive) in the experiment with SK-MEL-28; 16.5 µM (inactive) in the experiment with SK-MEL-5; 17.3 µM (inactive) in the experiment on SN12C; 15.8 µM (inactive) in the experiment on TK-10.
As to `COC(=O)/C(=N\NC(=O)c1ccccc1O)C(C#N)c1ccccc1` (stereo unspecified), the GI50 was 17.4 µM (inactive) with 786-0; 16.6 µM (inactive) in the experiment with A549; 18.4 µM (inactive) with EKVX; > 50 µM (inactive) in the experiment with HCC 2998; 17.3 µM (inactive) in the experiment on HCT-116; > 50 µM (inactive) in the experiment on HT-29. The GI50 in the experiment with LOX IMVI was 19.4 µM (inactive); in the experiment on Malme-3M, 21.4 µM (inactive); in the experiment on NCI-H226, 12.7 µM (inactive); with NCI-H23, 20.1 µM (inactive); in the experiment on OVCAR-5, 20.9 µM (inactive); in the experiment on OVCAR-8, 23.7 µM (inactive). The GI50 was 16.5 µM (inactive) with RXF 393; 22.1 µM (inactive) with SF-295; 14.8 µM (inactive) in the experiment on SF-539; > 50 µM (inactive) in the experiment on SK-MEL-28; 22 µM (inactive) in the experiment with SK-MEL-5; 37.4 µM (inactive) in the experiment on SN12C. Also, the GI50 with TK-10 is > 46.7 µM (inactive).
On to `CN1Cc2ccccc2S(=O)(=O)n2cccc2C1=O`, for which the GI50 in the experiment with 786-0, in the experiment on A549, in the experiment with EKVX, with HCT-116, in the experiment on LOX IMVI and in the experiment on MDA-MB-435 was > 100 µM (inactive) throughout. Moreover, the GI50 in the experiment on OVCAR-5, in the experiment on RXF 393, in the experiment on SF-295, in the experiment on SF-539, in the experiment on SK-MEL-28 and in the experiment on SK-MEL-5 was > 100 µM (inactive) throughout. Also, the GI50 in the experiment on SN12C and in the experiment with TK-10 was > 100 µM (inactive) each time.
For the molecule `CCCN(CCCC(NC(C)=O)C(=O)NCc1ccccc1)C(=O)N(C)N=O` (stereo unspecified), the GI50 in the experiment on 786-0, in the experiment with A549, with EKVX, in the experiment with HCC 2998, in the experiment on HCT-116 and in the experiment on HT-29 was > 100 µM (inactive) throughout. The GI50 in the experiment with LOX IMVI, with Malme-3M, with NCI-H226, with NCI-H23, in the experiment on OVCAR-5 and in the experiment with OVCAR-8 was > 100 µM (inactive) in each case. In addition, the GI50 in the experiment on RXF 393, in the experiment with SF-295, in the experiment on SF-539, with SK-MEL-28, with SK-MEL-5 and with SN12C was > 100 µM (inactive) throughout. Further, the GI50 with TK-10 was > 100 µM (inactive).
With `Cc1ccc(/C=C/C(=O)C(C)(C)CN2CCCCC2)cc1`, the GI50 in the experiment with 786-0 was 6 µM (inactive); with A549, 5.68 µM (inactive); in the experiment on EKVX, 3.18 µM (inactive); with HCC 2998, 15 µM (inactive); in the experiment with HCT-116 it was 10.5 µM (inactive); in the experiment with HT-29, 3.24 µM (inactive). Besides, the GI50 with LOX IMVI was 9.55 µM (inactive); in the experiment with Malme-3M, 13.3 µM (inactive); in the experiment on NCI-H226 it was 13.2 µM (inactive); with NCI-H23 it was 11.5 µM (inactive); in the experiment on OVCAR-5, 15.2 µM (inactive); with OVCAR-8 it was 2.81 µM (inactive). Besides, the GI50 with RXF 393 is 5.11 µM (inactive); in the experiment on SF-295, 7.8 µM (inactive); with SF-539 it was 4.6 µM (inactive); in the experiment with SK-MEL-28, 16.4 µM (inactive); in the experiment on SK-MEL-5, 2.86 µM (inactive); with SN12C it was 3.9 µM (inactive). In the experiment on TK-10, the GI50 is 11.6 µM (inactive).
`O=C1CC2(CCNCC2)C(=O)N1N1CCOCC1`: the GI50 in the experiment on 786-0, with A549, in the experiment with EKVX, in the experiment on HCC 2998, with HCT-116 and in the experiment on HT-29 was > 100 µM (inactive) throughout. The GI50 in the experiment with LOX IMVI, in the experiment with Malme-3M, in the experiment on NCI-H226, in the experiment on NCI-H23, with OVCAR-5 and with OVCAR-8 was > 100 µM (inactive) in each case. The GI50 with RXF 393, with SF-295, in the experiment with SF-539, in the experiment on SK-MEL-28, in the experiment with SK-MEL-5 and in the experiment with SN12C was > 100 µM (inactive) throughout. Moreover, the GI50 with TK-10 is > 100 µM (inactive).
Take `COP(=O)(CC(=O)C1OC(C)(C)OC1C(O)COCc1ccccc1)OC` (stereo unspecified): the GI50 in the experiment on 786-0, with A549, with EKVX, in the experiment on HCC 2998, in the experiment on HCT-116 and in the experiment with HT-29 was > 100 µM (inactive) throughout. Further, the GI50 with LOX IMVI, in the experiment on Malme-3M, with NCI-H226, in the experiment with NCI-H23, in the experiment with OVCAR-5 and in the experiment with OVCAR-8 was > 100 µM (inactive) each time. Moreover, the GI50 was > 100 µM (inactive) in the experiment on RXF 393; > 100 µM (inactive) in the experiment on SF-295; > 100 µM (inactive) in the experiment with SF-539; > 100 µM (inactive) with SK-MEL-28; 46.2 µM (inactive) in the experiment on SK-MEL-5; > 100 µM (inactive) with SN12C. Further, the GI50 in the experiment on TK-10 was > 100 µM (inactive).
As for `COC(=O)C1=C(C(=O)OC)C2(/N=C(\Nc3ccccc3)c3ccccc3)N(c3ccc(OC)cc3)CC(c3ccccc3)N2O1` (stereo unspecified), the GI50 in the experiment on 786-0, in the experiment on A549, in the experiment on EKVX, in the experiment with HCT-116, in the experiment on HT-29 and in the experiment with LOX IMVI was > 100 µM (inactive) in each case. The GI50 in the experiment on MDA-MB-435, with Malme-3M, with NCI-H23, with OVCAR-5, in the experiment with OVCAR-8 and in the experiment with RXF 393 was > 100 µM (inactive) each time. The GI50 in the experiment with SF-295, in the experiment with SF-539, in the experiment with SK-MEL-28, in the experiment with SK-MEL-5, in the experiment with SN12C and in the experiment with TK-10 was > 100 µM (inactive) each time.
Take `O=c1c2ccccc2n2n1CC(O)C2` (stereo unspecified): the GI50 in the experiment with 786-0, in the experiment on A549, in the experiment on EKVX, in the experiment with HCC 2998, in the experiment on HCT-116 and with HT-29 was > 100 µM (inactive) each time. Further, the GI50 was > 100 µM (inactive) in the experiment on LOX IMVI; 4.56 µM (inactive) in the experiment on Malme-3M; > 100 µM (inactive) in the experiment with NCI-H226; > 100 µM (inactive) in the experiment on NCI-H23; > 100 µM (inactive) in the experiment on OVCAR-5; > 100 µM (inactive) in the experiment on OVCAR-8. Also, the GI50 in the experiment with RXF 393, in the experiment on SF-295, in the experiment with SF-539, in the experiment on SK-MEL-28, in the experiment with SK-MEL-5 and in the experiment with SN12C was > 100 µM (inactive) throughout. In addition, the GI50 in the experiment on TK-10 is > 100 µM (inactive).
Regarding `C=C(CBr)CCCOCc1ccccc1`, the GI50 in the experiment on 786-0 is 36.6 µM (inactive); with A549 it was 38.4 µM (inactive); in the experiment with EKVX, 22.9 µM (inactive); in the experiment with HCT-116 it was 41.6 µM (inactive); with HT-29, 21.2 µM (inactive); with LOX IMVI, 30.6 µM (inactive). Also, the GI50 in the experiment with MDA-MB-435 is 28.4 µM (inactive); in the experiment with Malme-3M, 20.7 µM (inactive); with NCI-H226, 15.5 µM (inactive); in the experiment with NCI-H23 it was 13.9 µM (inactive); in the experiment on OVCAR-5 it was 18.7 µM (inactive); with OVCAR-8, 17 µM (inactive). Further, the GI50 was 36.1 µM (inactive) with SF-295; 19.5 µM (inactive) in the experiment on SF-539; 40.9 µM (inactive) with SK-MEL-28; 20.5 µM (inactive) with SK-MEL-5; 24.5 µM (inactive) with SN12C; 16.7 µM (inactive) in the experiment with TK-10.
For `[C-]#[N+]C(C)(C)C[C@H]1CC(C)C2CCC(C)C3([N+]#[C-])CCC(=C)C1[C@H]23` (stereo partly specified), the GI50 is 2.34 µM (inactive) with 786-0; 1.58 µM (inactive) with A549; 6.55 µM (inactive) in the experiment with EKVX; 5.83 µM (inactive) in the experiment on HCC 2998; 0.184 µM (active) with HCT-116; 0.413 µM (active) with HT-29. In addition, the GI50 in the experiment on LOX IMVI is 0.147 µM (active); in the experiment on Malme-3M, 5.86 µM (inactive); in the experiment with NCI-H226, 2.32 µM (inactive); in the experiment with NCI-H23, 0.509 µM (active); in the experiment on OVCAR-5, 0.288 µM (active); in the experiment on OVCAR-8 it was 0.227 µM (active). Moreover, the GI50 was 0.294 µM (active) with RXF 393; 0.887 µM (active) in the experiment on SF-295; 3.37 µM (inactive) with SF-539; 11.3 µM (inactive) with SK-MEL-28; 2.67 µM (inactive) in the experiment on SK-MEL-5; 0.195 µM (active) with SN12C. The GI50 in the experiment with TK-10 is 5.62 µM (inactive).
